This assay deals with Ba/F3 EGFR Del19/C797S cells. Kind of assay: Cell proliferation inhibition assay (Cell Titer-Glo), Ba/F3 EGFR Del19/C797S. The assay is classed as cell-based. The note with it: 72 hours, read-out: Ba/F3 EGFR Del19_C797S IC50. From the text:
Test Example 2: Cell Proliferation Inhibition Assay
Experimental objective: The objective of this test example is to test the inhibitory activity of compounds on the proliferation of different EGFR C797S drug-resistant mutant cell lines Ba/F3 EGFR Del19/T790M/C797S, Ba/F3 EGFR L858R/T790M/C797S, and Ba/F3 EGFR Del19/C797S.
• Ba/F3 EGFR Del19/T790M/C797S cells were purchased from KYinno Biotechnology Co., Ltd.; • Ba/F3 EGFR Del19/C797S cells were purchased from CoBioer Biosciences Co., Ltd.; • Ba/F3 EGFR L858R/T790M/C797S cells were purchased from CoBioer Biosciences Co., Ltd.; • Cell Titer-Glo was purchased from Promega, with a catalog number of G7573; • RPMI 1640 was purchased from Gibco, with a catalog number of 22400089; • FBS was purchased from Gibco, with a catalog number of 10091148; • cell culture plates were purchased from Corning, with a catalog number of 3610.
The inhibitory activity of the compound on the proliferation of different EGFR C797S drug-resistant mutant cell lines was detected using the Cell Titer-Glo method. The different cell lines were cultured in RPMI 1640 complete culture medium containing 10% FBS under conditions of 37° C. and 5% CO2, the cells were collected by centrifugation when growing to a certain density, and adjusted to appropriate cell density after counting, the cells were spread on a white 96-well plate at 90 μL/well, and cultured in a 37° C., 5% CO2 incubator overnight, prepared compound solutions of different concentrations were added at 10 μL/well, corresponding solvent controls were set, and all wells were cultured in a 37° C., 5% CO2 incubator for 72 hours, 50 μL of CellTiter-Glo solution was added to each well, shook and mixed evenly, and incubated in the dark for 10 minutes, and a BioTek Synergy H1 microplate reader was used for reading.
The luminescence signal value was used to calculate the inhibition rate. Graphpad Prism software was used to fit the concentration and inhibition rate to a nonlinear regression curve, so as to obtain the IC50 value, as shown in Tables 3 and 4 below for details.
A general note: Cellular ATP, detected with luciferase, serves as a proxy for viable cell number.

With `CC(C)c1ccc(N2C[C@H](CS(C)(=O)=O)[C@H]2C)c2cnc(Nc3ccnc(-c4c[nH]nc4Cl)n3)cc12` [Example 10, N-(2-(3-chloro-1H-pyrazol-4-yl)pyrimidin-4-yl)-5-isopropyl-8-((2R,3S)-2-methyl-3-((methanesulfonyl)methyl)azetidin-1-yl)isoquinolin-3-amine], the IC50 turned out to be 60 nM.

Consider `CC(C)c1ccc(N2C[C@H](CS(C)(=O)=O)[C@H]2C)c2cnc(Nc3ccnc(-c4cnn(C5CC5(F)F)c4)n3)cc12` (stereo partly drawn) [Example 12, N-(2-(1-(2,2-difluorocyclopropyl)-1H-pyrazol-4-yl)pyrimidin-4-yl)-5-isopropyl-8-((2R,3S)-2-methyl-3-((methanesulfonyl)methyl)azetidin-1-yl)isoquinolin-3-amine], for which the IC50 was determined as 56 nM. As to `CC(C)c1ccc(N2C[C@H](CS(C)(=O)=O)[C@H]2C)c2cnc(Nc3ccnc(-c4cnn(C5(C#N)CC5)c4)n3)cc12` [Example 13, 1-(4-(4-((5-isopropyl-8-((2R,3S)-2-methyl-3-((methanesulfonyl)methyl)azetidin-1-yl)isoquinolin-3-yl)amino)pyrimidin-2-yl)-1H-pyrazol-1-yl)cyclopropane-1-carbonitrile], the IC50 came to 82 nM. Turning to `CC(C)c1ccc(N2C[C@H](CS(C)(=O)=O)[C@H]2C)c2cnc(Nc3ccnc(-c4cnn([C@@H](C)C(F)(F)F)c4)n3)cc12` [Example 22A, 5-isopropyl-8-((2R,3S)-2-methyl-3-((methanesulfonyl)methyl)azetidin-1-yl)-N-(2-(1-((S)-1,1,1-trifluoropropan-2-yl)-1H-pyrazol-4-yl)pyrimidin-4-yl)isoquinolin-3-amine], the IC50 came out at 95 nM. The result for `CC(C)c1ccc(N2C[C@H](CS(C)(=O)=O)[C@H]2C)c2cnc(Nc3ccnc(-c4cnn(C5(CF)CC5)c4)n3)cc12` [Example 29, N-(2-(1-(1-(fluoromethyl)cyclopropyl)-1H-pyrazol-4-yl)pyrimidin-4-yl)-5-isopropyl-8-((2R,3S)-2-methyl-3-((methanesulfonyl)methyl)azetidin-1-yl)isoquinolin-3-amine] reads 64 nM; that for `CC(C)c1c(F)cc(N2C[C@H](CS(C)(=O)=O)[C@H]2C)c2cnc(Nc3ccnc(-c4cnn(C)c4)n3)cc12` [Example 39, 6-fluoro-5-isopropyl-N-(2-(1-methyl-1H-pyrazol-4-yl)pyrimidin-4-yl)-8-((2R,3S)-2-methyl-3-((methanesulfonyl)methyl)azetidin-1-yl)isoquinolin-3-amine], 73 nM; that for `CC(C)c1ccc(N2CC(CC#N)C2)c2cnc(Nc3ccnc(-c4cnn(S(=O)(=O)C5CC5)c4)n3)cc12` [Example 40, 2-(1-(3-((2-(1-(cyclopropylsulfonyl)-1H-pyrazol-4-yl)pyrimidin-4-yl)amino)-5-isopropylisoquinolin-8-yl)azetidin-3-yl)acetonitrile], 70 nM. For `COC1(n2cc(-c3nccc(Nc4cc5c(C(C)C)ccc(N6C[C@H](CS(C)(=O)=O)[C@H]6C)c5cn4)n3)cn2)CC1` [Example 49, 5-isopropyl-N-(2-(1-(1-methoxycyclopropyl)-1H-pyrazol-4-yl)pyrimidin-4-yl)-8-((2R,3S)-2-methyl-3-((methanesulfonyl)methyl)azetidin-1-yl)isoquinolin-3-amine], the IC50 was 41 nM. As to `CC(C)c1ccc(N2C[C@H](CS(C)(=O)=O)[C@H]2C)c2cnc(Nc3ccnc(-c4cnn(C5(CC#N)CC5)c4)n3)cc12` [Example 50, 2-(1-(4-(4-((5-isopropyl-8-((2R,3S)-2-methyl-3-((methanesulfonyl)methyl)azetidin-1-yl)isoquinolin-3-yl)amino)pyrimidin-2-yl)-1H-pyrazol-1-yl)cyclopropyl)acetonitrile], the IC50 worked out at 51 nM.

For `C=CCn1cc(-c2nccc(Nc3cc4c(C(C)C)ccc(N5C[C@H](CS(C)(=O)=O)[C@H]5C)c4cn3)n2)cn1` [Example 51, N-(2-(1-allyl-1H-pyrazol-4-yl)pyrimidin-4-yl)-5-isopropyl-8-((2R,3S)-2-methyl-3-((methanesulfonyl)methyl)azetidin-1-yl)isoquinolin-3-amine], the IC50 was found to be 41 nM.
